This passage reports GI50 and TGI results from PubChem BioAssay (NCI).

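Five compound concentrations were applied to cells in 96-well plates for 48 hours; endpoints were derived by simple linear interpolation of the resulting dose-response curve. Abbreviation: GI50, concentration required for 50% inhibition of growth. TGI: total growth inhibition.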

Some test systems named below: A549 NSCLC; HCT-116 colon; HS 578T breast; HT29 colon; K-562 leukemia; MDA-MB-231 breast; NCI-H522 lung; OVCAR-4 ovarian; SNB-19 CNS; UACC-257 melanoma.
Common to all, as to assay: growth of human tumour cells (NCI), 48 h

Regarding `O=C(Nc1ccc(Cl)cc1F)c1cc(Br)ccc1O`, the GI50 is 1.42 µM with A549 NSCLC; 0.805 µM in the assay with HCT-116 colon; 0.521 µM in the assay with HS 578T breast; 3.67 µM with HT29 colon; 0.678 µM in the assay on K-562 leukemia; 0.968 µM in the assay with MDA-MB-231 breast. Besides, the GI50 with NCI-H522 lung is 0.481 µM; with OVCAR-4 ovarian it was 0.732 µM; in the assay with SNB-19 CNS, 0.508 µM; with UACC-257 melanoma it was 0.705 µM. The TGI in the assay with A549 NSCLC was above 100 µM; in the assay on HCT-116 colon, 3.19 µM; with HS 578T breast, 4.08 µM; with HT29 colon it was above 100 µM; in the assay with K-562 leukemia, above 100 µM; in the assay on MDA-MB-231 breast it was 8.12 µM. For the same molecule, the TGI in the assay on NCI-H522 lung was 9.23 µM; in the assay with OVCAR-4 ovarian it was above 100 µM; with SNB-19 CNS it was above 100 µM; with UACC-257 melanoma, 3.29 µM.
`COc1ccc(CNc2c3ccccc3nc3ccccc23)cc1OC`: the GI50 was 2.24 µM in the assay on A549 NSCLC; 0.944 µM in the assay on HCT-116 colon; 2.64 µM in the assay on HS 578T breast; 1.71 µM with HT29 colon; 2.34 µM with K-562 leukemia; 2.37 µM in the assay with MDA-MB-231 breast. The GI50 was 1.55 µM in the assay on NCI-H522 lung, 2.39 µM with OVCAR-4 ovarian, 3.3 µM in the assay with SNB-19 CNS and 2.73 µM in the assay with UACC-257 melanoma. In addition, the TGI in the assay on A549 NSCLC is 6.87 µM; in the assay on HCT-116 colon, 10.9 µM; with HS 578T breast it was 10.1 µM; in the assay on HT29 colon it was 7.85 µM; in the assay on K-562 leukemia, 25.2 µM; in the assay on MDA-MB-231 breast it was 7.32 µM. Further, the TGI with NCI-H522 lung amounted to 4.15 µM; with OVCAR-4 ovarian it was 7.99 µM; in the assay on SNB-19 CNS, 17.2 µM; in the assay with UACC-257 melanoma, 8.22 µM.
Turning to `O=C(O)c1cc(O)c2c(c1)C(C1c3cc(C(=O)O)cc(O)c3C(=O)c3c(OC4OC(CO)C(O)C(O)C4O)cccc31)c1cccc(OC3OC(CO)C(O)C(O)C3O)c1C2=O` (stereo not given), the GI50 with A549 NSCLC, in the assay on HCT-116 colon, with HS 578T breast, in the assay with HT29 colon, with K-562 leukemia and in the assay on MDA-MB-231 breast was above 100 µM each time. Also, the GI50 in the assay on NCI-H522 lung, in the assay with OVCAR-4 ovarian, with SNB-19 CNS and in the assay on UACC-257 melanoma was above 100 µM each time. Moreover, the TGI with A549 NSCLC, in the assay with HCT-116 colon, in the assay on HS 578T breast, with HT29 colon, in the assay with K-562 leukemia and in the assay on MDA-MB-231 breast was above 100 µM throughout. Moreover, the TGI in the assay with NCI-H522 lung, with OVCAR-4 ovarian, in the assay on SNB-19 CNS and with UACC-257 melanoma was above 100 µM in each case.
As to `O=C(O)c1cccc(OCCO)c1`, the TGI with A549 NSCLC, with HCT-116 colon, in the assay on HS 578T breast, in the assay on HT29 colon, in the assay on K-562 leukemia and in the assay on MDA-MB-231 breast was above 100 µM each time. Besides, the TGI in the assay with NCI-H522 lung, in the assay with OVCAR-4 ovarian, in the assay on SNB-19 CNS and in the assay with UACC-257 melanoma was above 100 µM each time.
As for `CN(C)c1ccc2nc3ccc(=O)cc-3sc2c1`, the GI50 is 0.312 µM in the assay with A549 NSCLC; 1.16 µM with HCT-116 colon; 7.12 µM with HS 578T breast; 4.26 µM in the assay with HT29 colon; 0.919 µM in the assay with K-562 leukemia; 1.14 µM with MDA-MB-231 breast. Moreover, the GI50 with NCI-H522 lung is 0.835 µM; with OVCAR-4 ovarian it was 1.41 µM; in the assay with SNB-19 CNS, 2.63 µM; in the assay on UACC-257 melanoma, 0.38 µM. Also, the TGI with A549 NSCLC is 3.02 µM; in the assay on HCT-116 colon it was 8.47 µM; with HS 578T breast, above 100 µM; with HT29 colon it was 37.1 µM; in the assay on K-562 leukemia, above 100 µM; in the assay on MDA-MB-231 breast it was above 45.4 µM. For the same molecule, the TGI in the assay on NCI-H522 lung is 7.85 µM; in the assay on OVCAR-4 ovarian, 36.5 µM; with SNB-19 CNS, above 100 µM; with UACC-257 melanoma it was 3.29 µM.
Regarding `N#CC(C(=O)/C(=N/Nc1nc(=S)[nH]n1N)C(C#N)c1ccccc1)c1ccccc1` (stereo not given), the TGI with A549 NSCLC, in the assay on HCT-116 colon, in the assay on HS 578T breast, in the assay with HT29 colon, with K-562 leukemia and in the assay on MDA-MB-231 breast was above 100 µM throughout. Also, the TGI with NCI-H522 lung, with OVCAR-4 ovarian, in the assay with SNB-19 CNS and in the assay with UACC-257 melanoma was above 100 µM in each case.
On to `O=C(O)Cc1c(O)ccc2ccccc12`, for which the TGI in the assay on A549 NSCLC, with HCT-116 colon, in the assay with HS 578T breast, in the assay with HT29 colon, in the assay with K-562 leukemia and in the assay with MDA-MB-231 breast was above 100 µM each time. In addition, the TGI in the assay on NCI-H522 lung, in the assay with OVCAR-4 ovarian, in the assay on SNB-19 CNS and with UACC-257 melanoma was above 100 µM in each case.
With `COC(COC(=O)N1CCN(C=O)CC1)C1=C(N2CC2)C(=O)C(C)=C(N2CC2)C1=O` (stereo not given), the TGI with A549 NSCLC was 2.71 µM; in the assay on HCT-116 colon, 1.55 µM; in the assay on HS 578T breast, 5.17 µM; in the assay on HT29 colon it was 0.999 µM; in the assay on K-562 leukemia, above 100 µM; in the assay with MDA-MB-231 breast, 8.16 µM. The TGI in the assay with NCI-H522 lung stood at 0.26 µM; in the assay with OVCAR-4 ovarian, 2.13 µM; in the assay with SNB-19 CNS, 13.4 µM; in the assay on UACC-257 melanoma it was 1.9 µM.
Regarding `Cc1c(C2Nc3ccccc3C2C)[nH]c2ccccc12` (stereo not given), the GI50 with A549 NSCLC was 1.67 µM; in the assay with HCT-116 colon, 0.83 µM; with HS 578T breast, 16.1 µM; with HT29 colon, 4.48 µM; in the assay on K-562 leukemia, 0.89 µM; in the assay with MDA-MB-231 breast, 5.37 µM. Moreover, the GI50 is 10.8 µM with NCI-H522 lung, 6.17 µM with OVCAR-4 ovarian, 13.8 µM in the assay on SNB-19 CNS and 12.4 µM with UACC-257 melanoma. For the same molecule, the TGI with A549 NSCLC worked out at 24.1 µM; in the assay on HCT-116 colon, 23.5 µM; in the assay on HS 578T breast, 49.7 µM; with HT29 colon it was 23.1 µM; in the assay on K-562 leukemia it was 50.4 µM; in the assay with MDA-MB-231 breast, 21.4 µM. In addition, the TGI was determined as 26.5 µM in the assay on NCI-H522 lung, 21.6 µM in the assay with OVCAR-4 ovarian, 38 µM in the assay with SNB-19 CNS and 28.3 µM in the assay on UACC-257 melanoma.
